From patent US9522920B2, “Bromodomain inhibitors and uses thereof” (Constellation Pharmaceuticals, Inc., priority 2010, dated 2016)

Legend:
BRD4(BD1) = molecular target: T1, BRD4(BD1) (Homo sapiens, UniProt O60885); experiment: BRD4 AlphaLisa binding assay (Alphascreen); settings: Table 14; BRD4 AlphaLisa Binding Assay; read-out: Alpha screen
T1 construct: His; made in house
Method in brief: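 BRD4(BD1) (30 nM) incubated 20 min at room temperature with peptide (200 nM) and compound in 40 mM HEPES pH 7.0, 40 mM NaCl, 1 mM DTT, 0.01% BSA, 0.008% Brij-35, 1.2% DMSO.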

IL-6 secretion = experiment: Cell-based IL-6 quantification assay (ELISA, Mesoscale) in LPS-stimulated THP-1 cells; settings: Homo sapiens, THP-1, 16 h, Table 14; THP-1 cells, LPS, 16 h; read-out: IL6
Method in brief: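 THP-1 cells stimulated with LPS at 4 μg/mL final and exposed to compounds for 16 h. Supernatant IL-6 measured by Mesoscale ELISA and normalized to CellTiter-Glo cell content. Percent inhibition derived from that ratio.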

MYC mRNA = experiment: cMyc RNA quantification assay (QuantiGene) in MV4:11 cells; assay type: cell-based; settings: Homo sapiens, MV4-11, 4 h, Table 14, MV4:11 cells, read-out: MYC-MV411
Procedure: MV4:11 (AML) or Raji (Burkitt's lymphoma) cells were seeded in a 96-well plate and incubated in the presence of various concentrations of compounds for 4 h. Relative mRNA levels were quantitated by using QuantiGene 2.0 assay (Affymetrix) according to the manufacturer's recommendation. Signals were detected by using an Envision plate reader (Perkin-Elmer). Biological duplicates were averaged and normalized to vehicle (DMSO) control to calculate percent MYC mRNA levels.

Row | IC50 (BRD4(BD1)) | IC50 (IL-6 secretion) | IC50 (MYC mRNA) | Compound
1 | > 1000 nM | > 1000 nM | > 1000 nM | Cc1noc2c1-c1ccccc1C(c1ccc(Cl)cc1)=NC2C#N (stereo not drawn) [Compound 215, 6-(4-chlorophenyl)-1-methyl-4H-benzo[c]isoxazolo[4,5-e]azepine-4-carbonitrile]
2 | < 500 nM | < 500 nM | < 500 nM | Cc1noc2c1-c1ccc(-c3ccc(N)nc3)cc1C(c1ccc(F)cc1)=N[C@H]2CC(N)=O [Compound 216]
3 | < 500 nM | < 500 nM | < 500 nM | COc1ccc2c(c1)C(c1ccc(Cl)cc1)=N[C@@H](CC(N)=O)c1onc(C)c1-2 [Compound 217, 2-((4S)-6-(4-chlorophenyl)-8-methoxy-1-methyl-4H-benzo[c]isoxazolo[4,5-e]azepin-4-yl)acetamide]
4 | > 1000 nM | > 1000 nM | > 1000 nM | Cc1noc2c1-c1ccccc1C(c1ccc(Cl)cc1)=NC2C(N)=O (stereo not drawn) [Compound 218, 6-(4-chlorophenyl)-1-methyl-4H-benzo[c]isoxazolo[4,5-e]azepine-4-carboxamide]
5 | > 1000 nM | > 1000 nM | 500 to 1000 nM | COc1ccc2c(n1)-c1c(C)noc1CN=C2c1ccc(Cl)cc1 [Compound 219, 5-(4-Chlorophenyl)-2-methoxy-10-methyl-7H-isoxazolo[5,4-c]pyrido[2,3-e]azepine]
6 | > 1000 nM | > 1000 nM | > 1000 nM | Cc1noc2c1-c1[nH]c(=O)ccc1C(c1ccc(Cl)cc1)=NC2 [Compound 220, 5-(4-Chlorophenyl)-10-methyl-1H-isoxazolo[5,4-c]pyrido[2,3-e]azepin-2(7H)-one]
7 | > 1000 nM | > 1000 nM | > 1000 nM | CNc1ccc2c(n1)-c1c(C)noc1CN=C2c1ccc(Cl)cc1 [Compound 221, 5-(4-Chlorophenyl)-N,10-dimethyl-7H-isoxazolo[5,4-c]pyrido[2,3-e]azepin-2-amine]
8 | < 500 nM | < 500 nM | < 500 nM | Cc1noc2c1-c1ccnc(N)c1C(c1ccc(Cl)cc1)=N[C@H]2CC(N)=O [Compound 222, 2-((4S)-7-Amino-6-(4-chlorophenyl)-1-methyl-4H-isoxazolo[5,4-c]pyrido[4,3-e]azepin-4-yl)acetamide]
9 | > 1000 nM | > 1000 nM | > 1000 nM | Cc1noc2c1-c1ccccc1C(c1ccc(Cl)cc1)=N[C@H]2CC(C)(C)O [Compound 223, 1-((4S)-6-(4-chlorophenyl)-1-methyl-4H-benzo[c]isoxazolo[4,5-e]azepin-4-yl)-2-methylpropan-2-ol]
10 | < 500 nM | < 500 nM | < 500 nM | Cc1noc2c1-c1ccc(C#N)cc1C(c1ccc(Cl)cc1)=N[C@H]2CC(N)=O [Compound 224]
11 | < 500 nM | < 500 nM | < 500 nM | CCOC(=O)NC1N=C(c2ccc(Cl)cc2)c2ccccc2-c2c(C)noc21 (stereo not drawn) [Compound 225, ethyl (6-(4-chlorophenyl)-1-methyl-4H-benzo[c]isoxazolo[4,5-e]azepin-4-yl)carbamate]
12 | < 500 nM | < 500 nM | < 500 nM | Cc1noc2c1-c1ccccc1C(c1ccc(C3(O)CC3)cc1)=N[C@H]2CC(N)=O [Compound 226]
13 | > 1000 nM | > 1000 nM | > 1000 nM | Cc1noc2c1-c1nc(Cl)ccc1C(c1ccc(Cl)cc1)=NC2 [Compound 227, 2-Chloro-5-(4-chlorophenyl)-10-methyl-7H-isoxazolo[5,4-c]pyrido[2,3-e]azepine]
14 | > 1000 nM | > 1000 nM | > 1000 nM | Cc1noc2c1-c1nc(N)ccc1C(c1ccc(Cl)cc1)=NC2 [Compound 228, 5-(4-Chlorophenyl)-10-methyl-7H-isoxazolo[5,4-c]pyrido[2,3-e]azepin-2-amine]
15 | > 1000 nM | > 1000 nM | > 1000 nM | Cc1noc2c1-c1ccnc(Oc3ccccc3)c1C(c1ccc(Cl)cc1)=NC2 [Compound 229, 6-(4-Chlorophenyl)-1-methyl-7-phenoxy-4H-isoxazolo[5,4-c]pyrido[4,3-e]azepine]
